A short description of data set [1]: Empirical plasma PK model. It counts as in vivo, rat. The note with it: for clearance: rat, plasma, iv.
The conditions of data set [2]: source not given; cited from earlier work.
Another data set can be described thus: Asymmetry factors. The note with it: for AFin2, asymmetry factor: into CSFLV at BCSFB1; for AFin2, asymmetry factor / AFout2, asymmetry factor: calculated from Kp,uu,CSFLV; for AFin3, asymmetry factor: into CSFTFV at BCSFB2; for AFin3, asymmetry factor / AFout3, asymmetry factor: calculated from Kp,uu,CSFCM; for AFin1, asymmetry factor: into brainECF at BBB; for AFin1, asymmetry factor / AFout1, asymmetry factor: calculated from Kp,uu,brainECF; for AFout2, asymmetry factor: out from CSFLV at BCSFB1; for AFout3, asymmetry factor: out from CSFTFV at BCSFB2; for AFout1, asymmetry factor: out from brainECF at BBB. On the set-up: species or system rat.

Data set [3] can be described thus: Drug transport clearance at the brain cell membrane in the PBPK model. Also noted: species or system rat. As to conditions: comparison of QBCM_in/QBCM_out with QBBB_in/QBBB_out.
The conditions of data set [4]: source not given; cited from earlier work. This is another data set of the same source.
The conditions of data set [5]: rat; cited from earlier work.
A further data set in a line: Free fraction in brain. It counts as in vitro ADME. As to conditions: rat.
For data set [6] the following is noted: ref fu,p references of Table SI; cited from earlier work.
Where [7] appears, read: rat plasma PK model, estimate (RSE, %).
[8] abbreviates: rat plasma PK model, parameter estimate (RSE, %).

The term clearance denotes a measure of how efficiently the substance is removed, as volume per time. Low values mean inefficient removal, high ones efficient removal. In general, fraction unbound refers to the share of the substance not bound to proteins or other matrix. The low end stands for extensive binding, the high end for weak binding.

Consider `C=C[C@H]1C[N@@]2CC[C@H]1C[C@@H]2[C@@H](O)c1ccnc2ccc(OC)cc12` [Quinidine], for which, in data set [1] (setting [7]), the “ɷ_CLPL, interindividual variability” value is 23.9 (15.3) %; the “ɷ_QPL_PER1, interindividual variability” value is listed as 24.3 (28.2) %; the “ɷ_VPER1, interindividual variability” value was 12.8 (26.6) %.
On to `CN1CC[C@]23c4c5ccc(O)c4O[C@H]2[C@@H](O)C=C[C@H]3[C@H]1C5` [Morphine], for which, in data set [1] (setting [7]), the “ɷ_CLPL, interindividual variability” value is given as 17.8 (39.5) %; the “ɷ_QPL_PER1, interindividual variability” value is listed as 28.8 (29.4) %; the “ɷ_QPL_PER2, interindividual variability” value is 86.7 (19.3) %; the “ɷ_VPER1, interindividual variability” value is 46.0 (15.3) %. In data set [1] (setting [7]), the “ɷ_VPL, interindividual variability” value is 80.6 (17.2) %; the “ɷ_study1, interoccasional variability” value is 42.7 (16.2) %; the “ɷ_study2, interoccasional variability” value is recorded as 29.7 (30.5) %. Moreover, the Charge class result in data set [2] is listed as “Base”.
Turning to `Cc1nc2n(c(=O)c1CCN1CCC(c3noc4cc(F)ccc34)CC1)CCCC2` [Risperidone], in the data set “Asymmetry factors”, the “AFin2, asymmetry factor” value was 1.0; the “AFin3, asymmetry factor” value is 1.0; the “AFin1, asymmetry factor” value is 1.0; the “AFout2, asymmetry factor” value is reported as 1.3. In addition, in “Asymmetry factors”, the “AFout3, asymmetry factor” value is on record as 1.5 and the “AFout1, asymmetry factor” value is listed as 1.3. Further, in data set [1] (setting [7]), the “ɷ_CLPL, interindividual variability” value is on record as 72.5 (38.7) % and the “ɷ_VPL, interindividual variability” value was 53.7 (78.8) %. The “VPL, distribution volume of the central compartment” value (shortened to “VPL, distribution volume”) in data set [1] (setting [8]) was 43,100 (28.1) mL. In addition, the clearance in data set [1] worked out at 886 mL/min. Also, the “what limits the transport clearance from brainMV, via brainECF, to brainICF” value (“what limits the transport clearance” below) in data set [3] was “limited by QBBB_in and QBBB_out”. In addition, the Charge class entry in data set [2] is on record as “Base”. For the same molecule, the “fu,b, free fraction in brain” value in data set [4] was 0.065.
`CCN1CCC[C@H]1CNC(=O)c1c(OC)ccc(Br)c1OC` [Remoxipride]: in data set [1] (setting [7]), the “ɷ_CLPL, interindividual variability” value was 31.0 (12.0) %; the “ɷ_QPL_PER1, interindividual variability” value is reported as 25.1 (12.1) %; the “ɷ_QPL_PER2, interindividual variability” value was 76.7 (13.5) %; the “ɷ_VPL, interindividual variability” value is recorded as 64.1 (32.9) %. Further, in data set [1] (setting [8]), the “VPER1, distribution volume of the peripheral compartment 1” value (“VPER1, distribution volume” for short) is 253 (10.9) mL; the “VPER2, distribution volume of the peripheral compartment 2” value (“VPER2, distribution volume” below) is on record as 757 (4.00) mL; the “VPL, distribution volume” value is 83.7 (18.3) mL. Besides, the clearance in data set [1] was found to be 42.2 mL/min. In addition, the Charge class result in data set [2] is recorded as “Base”.
In the case of `CN(Cc1cnc2nc(N)nc(N)c2n1)c1ccc(C(=O)N[C@@H](CCC(=O)O)C(=O)O)cc1` [Methotrexate], in data set [1] (setting [7]), the “ɷ_CLPL, interindividual variability” value was 37.4 (46.8) %; the “ɷ_QPL_PER2, interindividual variability” value is reported as 42.5 (42.0) %; the “ɷ_VPL, interindividual variability” value is given as 40.4 (75.5) %. In data set [1] (setting [8]), the “VPER1, distribution volume” value is 111 (14.6) mL; the “VPER2, distribution volume” value is on record as 83.5 (34.9) mL; the “VPL, distribution volume” value is 28.0 (55.0) mL. Moreover, the clearance in data set [1] was determined as 8.04 mL/min. In addition, the “what limits the transport clearance” value in data set [3] was “limited by QBCM_in and QBCM_out”. For the same molecule, the Charge class result in data set [2] was “Acid”.
For `CCN1CCC[C@H]1CNC(=O)c1c(O)c(Cl)cc(Cl)c1OC` [Raclopride], in the data set “Asymmetry factors”, the “AFin2, asymmetry factor” value is 1.0; the “AFin3, asymmetry factor” value is 1.0; the “AFin1, asymmetry factor” value is listed as 1.0; the “AFout2, asymmetry factor” value was 1.1. In addition, in the data set “Asymmetry factors”, the “AFout3, asymmetry factor” value is given as 1.9 and the “AFout1, asymmetry factor” value is reported as 1.4. The “ɷ_CLPL, interindividual variability” value in data set [1] (setting [7]) is reported as 14.4 (29.8) %. Also, in data set [1] (setting [8]), the “VPER1, distribution volume” value is recorded as 684 (19.2) mL; the “VPER2, distribution volume” value is listed as 493 (18.3) mL; the “VPL, distribution volume” value is given as 48.9 (16.3) mL. This molecule also yielded a clearance in data set [1] of 46.4 mL/min. For the same molecule, the “what limits the transport clearance” value in data set [3] is “limited by QBBB_in and QBBB_out”. Moreover, in data set [2], the Charge class entry was “Zwitterion”, the “pKa (acid)” value is 5.9 and the “pKa (base)” value is given as 9.0.
As for `Cc1nc2n(c(=O)c1CCN1CCC(c3noc4cc(F)ccc34)CC1)CCCC2O` (stereo not drawn) [Paliperidone], in “Asymmetry factors”, the “AFin2, asymmetry factor” value was 1.0; the “AFin3, asymmetry factor” value is listed as 1.0; the “AFin1, asymmetry factor” value is reported as 1.0; the “AFout2, asymmetry factor” value is on record as 3.7. In “Asymmetry factors”, the “AFout3, asymmetry factor” value is reported as 4.7 and the “AFout1, asymmetry factor” value is reported as 3.0. In data set [1] (setting [7]), the “ɷ_CLPL, interindividual variability” value was 42.0 (62.5) % and the “ɷ_VPL, interindividual variability” value is reported as 47.5 (81.4) %. In data set [1] (setting [8]), the “VPER1, distribution volume” value is recorded as 3,580 (35.8) mL and the “VPL, distribution volume” value is on record as 26,400 (12.6) mL. Also, the clearance in data set [1] amounted to 196 mL/min. Further, the “what limits the transport clearance” value in data set [3] was “limited by QBBB_in and QBBB_out”. In data set [5], the “Kp,uu,CSFCM, unbound CSFCM-to-plasma concentration ratio” value is recorded as 0.50; the “Kp,uu,CSFLV, unbound CSFLV-to-plasma concentration ratio” value was 0.50; the “Kp,uu,brainECF, unbound brain extracellular fluid-to-plasma concentration ratio” value is given as 0.50. In addition, in data set [2], the Charge class result is on record as “Base” and the “pKa (acid)” value is given as 13.7. This molecule returned a fraction unbound in “Free fraction in brain” of 0.065.
As for `O=C1NC(=O)C(c2ccccc2)(c2ccccc2)N1` [Phenytoin], in “Asymmetry factors”, the “AFin2, asymmetry factor” value is reported as 1.0; the “AFin3, asymmetry factor” value is 1.0; the “AFin1, asymmetry factor” value is given as 1.0; the “AFout2, asymmetry factor” value is listed as 7.6. Also, in the data set “Asymmetry factors”, the “AFout3, asymmetry factor” value is reported as 7.7 and the “AFout1, asymmetry factor” value was 4.2. In addition, in data set [1] (setting [7]), the “ɷ_CLPL, interindividual variability” value is on record as 73.8 (12.5) % and the “ɷ_VPL, interindividual variability” value is reported as 75.0 (27.2) %. Moreover, in data set [1] (setting [8]), the “VPER1, distribution volume” value was 2,050 (7.50) mL and the “VPL, distribution volume” value is 943 (21.5) mL. The molecule also came in with a clearance in data set [1] of 36 mL/min. The “what limits the transport clearance” value in data set [3] was “limited by QBBB_in and QBBB_out”. Besides, in data set [5], the “Kp,uu,CSFCM, unbound CSFCM-to-plasma concentration ratio” value is 0.26; the “Kp,uu,CSFLV, unbound CSFLV-to-plasma concentration ratio” value is listed as 0.26; the “Kp,uu,brainECF, unbound brain extracellular fluid-to-plasma concentration ratio” value is listed as 0.26. In data set [2], the Charge class result is on record as “Neutral”. Also, in data set [4], the “fu,b, free fraction in brain” value is on record as 0.080.
On to `CC(=O)Nc1ccc(O)cc1` [Acetaminophen], for which, in data set [6], the “fu,p, free fraction in plasma” value is given as 0.81. Further, the “ɷ_VPER1, interindividual variability” value in data set [1] (setting [7]) is given as 51.8 (86.0) %. Also, in data set [1] (setting [8]), the “Fraction, percentage of the drug which is reabsorbed by enterohepatic circulation” value was 0.693 (19.6); the “VPER1, distribution volume” value was 363 (33.1) mL; the “VPL, distribution volume” value is recorded as 49.5 (59.0) mL. Also, the Charge class result in data set [2] is on record as “Neutral”.
On to `CC(C)NCC(O)COc1ccc(CC(N)=O)cc1` (stereo not drawn) [Atenolol], for which, in data set [2], the Charge class entry is recorded as “Base”.

These data come from publication PMC5702903 (CPT: Pharmacometrics & Systems Pharmacology, 2017).
